Measured values reported in ChEMBL document CHEMBL1146670, “Structure based design of a series of potent and selective non peptidic PTP-1B inhibitors” (Bioorg Med Chem Lett, 2004).

What was measured:
[1] = target: T1, Receptor-type tyrosine-protein phosphatase C (Homo sapiens, UniProt P08575); assay: Inhibitory activity against CD45 protein-tyrosine phosphatase
T1 sequence (P08575 whole entry): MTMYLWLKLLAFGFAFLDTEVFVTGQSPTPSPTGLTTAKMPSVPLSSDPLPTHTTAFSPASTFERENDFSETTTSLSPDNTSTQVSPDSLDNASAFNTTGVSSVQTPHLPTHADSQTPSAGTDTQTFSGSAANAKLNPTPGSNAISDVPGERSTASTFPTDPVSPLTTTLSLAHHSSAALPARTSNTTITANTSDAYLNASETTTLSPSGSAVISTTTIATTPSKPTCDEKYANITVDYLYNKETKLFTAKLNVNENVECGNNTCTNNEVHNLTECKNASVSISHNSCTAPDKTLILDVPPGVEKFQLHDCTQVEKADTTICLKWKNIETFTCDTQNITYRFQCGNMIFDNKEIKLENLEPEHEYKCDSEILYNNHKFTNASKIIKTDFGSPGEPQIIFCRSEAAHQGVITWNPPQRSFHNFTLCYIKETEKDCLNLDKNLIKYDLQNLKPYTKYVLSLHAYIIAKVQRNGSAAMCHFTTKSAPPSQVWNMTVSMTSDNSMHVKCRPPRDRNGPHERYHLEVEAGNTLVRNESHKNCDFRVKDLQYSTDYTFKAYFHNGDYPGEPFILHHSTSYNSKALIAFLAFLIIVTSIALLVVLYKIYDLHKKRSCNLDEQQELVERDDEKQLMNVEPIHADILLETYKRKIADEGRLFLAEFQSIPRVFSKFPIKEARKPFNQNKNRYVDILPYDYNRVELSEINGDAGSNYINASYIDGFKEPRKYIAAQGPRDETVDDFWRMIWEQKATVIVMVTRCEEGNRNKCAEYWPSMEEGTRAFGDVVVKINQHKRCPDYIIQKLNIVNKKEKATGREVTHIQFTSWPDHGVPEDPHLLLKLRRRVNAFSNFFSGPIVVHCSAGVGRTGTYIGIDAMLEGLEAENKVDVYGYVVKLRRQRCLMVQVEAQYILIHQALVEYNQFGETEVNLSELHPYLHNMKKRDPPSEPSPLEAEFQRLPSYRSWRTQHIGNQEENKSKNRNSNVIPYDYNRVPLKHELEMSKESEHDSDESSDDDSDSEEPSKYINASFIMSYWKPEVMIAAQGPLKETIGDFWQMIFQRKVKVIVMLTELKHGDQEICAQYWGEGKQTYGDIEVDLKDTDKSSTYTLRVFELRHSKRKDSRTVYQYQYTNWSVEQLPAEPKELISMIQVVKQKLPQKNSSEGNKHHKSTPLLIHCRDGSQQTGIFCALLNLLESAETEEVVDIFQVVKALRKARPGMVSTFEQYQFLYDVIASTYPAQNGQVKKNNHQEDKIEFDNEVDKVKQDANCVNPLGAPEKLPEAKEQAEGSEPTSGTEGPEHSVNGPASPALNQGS

[2] = target: T2, Tyrosine-protein phosphatase non-receptor type 1 (Homo sapiens, UniProt P18031); assay: Inhibitory activity against protein tyrosine phosphatase 1B (PTP1B) was determined in fluorescein diphosphate (FDP) assay
T2 sequence (P18031 whole entry): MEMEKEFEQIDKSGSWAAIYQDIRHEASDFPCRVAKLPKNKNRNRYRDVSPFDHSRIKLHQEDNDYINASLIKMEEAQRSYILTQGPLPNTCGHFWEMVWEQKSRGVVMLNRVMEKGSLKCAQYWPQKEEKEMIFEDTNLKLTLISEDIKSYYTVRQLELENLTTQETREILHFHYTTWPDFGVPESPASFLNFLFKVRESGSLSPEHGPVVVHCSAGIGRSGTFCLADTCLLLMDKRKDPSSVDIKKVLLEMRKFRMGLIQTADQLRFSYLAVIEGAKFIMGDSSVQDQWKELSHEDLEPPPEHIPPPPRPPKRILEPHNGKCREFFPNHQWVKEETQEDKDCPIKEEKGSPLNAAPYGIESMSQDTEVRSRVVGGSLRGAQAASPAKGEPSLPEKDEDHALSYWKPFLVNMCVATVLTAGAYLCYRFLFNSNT

[3] = target: T3, Tyrosine-protein phosphatase non-receptor type 2 (Homo sapiens, UniProt P17706); assay: Inhibitory activity against T cell protein tyrosine phosphatase; assay type: cell-based
T3 sequence (P17706 whole entry): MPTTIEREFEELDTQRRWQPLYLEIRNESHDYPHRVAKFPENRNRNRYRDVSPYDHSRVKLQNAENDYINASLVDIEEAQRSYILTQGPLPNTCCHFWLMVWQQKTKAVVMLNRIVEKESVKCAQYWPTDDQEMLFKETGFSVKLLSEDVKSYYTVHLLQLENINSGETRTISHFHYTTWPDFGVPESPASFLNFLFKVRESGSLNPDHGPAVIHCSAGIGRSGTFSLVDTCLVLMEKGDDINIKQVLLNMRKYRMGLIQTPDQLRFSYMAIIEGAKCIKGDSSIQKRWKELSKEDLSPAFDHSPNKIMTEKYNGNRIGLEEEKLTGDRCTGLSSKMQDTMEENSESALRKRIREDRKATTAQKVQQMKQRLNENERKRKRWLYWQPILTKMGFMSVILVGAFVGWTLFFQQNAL

[4] = target: T2, Tyrosine-protein phosphatase non-receptor type 1; assay: Inhibitory activity against Protein tyrosine phosphatase 1B (PTP1B) over-expressed in intact Sf9 cell assay

## O=P(O)(O)C(F)(F)c1ccc(CC(c2ccccc2)n2nnc3ccccc32)cc1 (stereo unspecified)
[1]
  IC50: > 50 µM
[2]
  IC50: 8.04 µM
[3]
  IC50: 7.26 µM

## O=P(O)(O)C(F)(F)c1ccc(CC(CCCc2ccccc2)(c2ccccc2)n2nnc3ccccc32)cc1 (stereo unspecified)
[1]
  IC50: 30 µM
[4]
  IC50: 0.65 µM
[2]
  IC50: 0.046 µM
[3]
  IC50: 0.072 µM

## O=P(O)(O)C(F)(F)c1ccc(CC(Cc2ccc(C(F)(F)P(=O)(O)O)cc2)(c2nc3ccccc3s2)n2nnc3ccccc32)cc1
[1]
  IC50: 11 µM
[4]
  IC50: 0.088 µM
[2]
  IC50: 0.018 µM
[3]
  IC50: 0.02 µM

## Cc1ccc2cc(-c3ccc(CC(Cc4ccc(C(F)(F)P(=O)(O)O)cc4)(c4ccccc4)n4nnc5ccccc54)cc3)cc(P(=O)(O)O)c2n1 (stereo unspecified)
[1]
  IC50: 50 µM
[4]
  IC50: 0.22 µM

## COC(=O)c1ccc(C(Cc2ccc(C(F)(F)P(=O)(O)O)cc2)(Cc2ccc(C(F)(F)P(=O)(O)O)cc2)n2nnc3ccccc32)cc1
[1]
  IC50: 50 µM
[4]
  IC50: 0.084 µM
[2]
  IC50: 0.011 µM
[3]
  IC50: 0.016 µM

## O=P(O)(O)C(F)(F)c1ccc(CC(Cc2ccc(C(F)(F)P(=O)(O)O)cc2)(c2nc(-c3ccccc3)cs2)n2nnc3ccccc32)cc1
[1]
  IC50: 50 µM
[4]
  IC50: 0.19 µM
[2]
  IC50: 0.019 µM
[3]
  IC50: 0.018 µM

## O=P(O)(O)C(F)(F)c1ccc(CC(C/C=C/c2ccccc2)(c2ccccc2)n2nnc3ccccc32)cc1 (stereo unspecified)
[1]
  IC50: 50 µM
[4]
  IC50: 0.46 µM
[2]
  IC50: 0.049 µM
[3]
  IC50: 0.049 µM

## O=P(O)(O)c1cccc(-c2ccc(CC(Cc3ccc(C(F)(F)P(=O)(O)O)cc3)(c3ccccc3)n3nnc4ccccc43)cc2)c1 (stereo unspecified)
[1]
  IC50: 50 µM

## O=P(O)(O)C(F)(F)c1ccc(CC(Cc2ccc(-c3ccccc3)cc2)(c2ccccc2)n2nnc3ccccc32)cc1 (stereo unspecified)
[1]
  IC50: 69 µM
[4]
  IC50: 1.6 µM

## O=C(OCc1ccccc1)C(Cc1ccc(C(F)(F)P(=O)(O)O)cc1)(c1ccccc1)n1nnc2ccccc21 (stereo unspecified)
[1]
  IC50: 50 µM
[4]
  IC50: 1.7 µM
[2]
  IC50: 0.24 µM
[3]
  IC50: 0.29 µM

## O=P(O)(O)C(F)(F)c1ccc(CC(Cc2ccc(OCc3ccccc3)cc2)(c2ccccc2)n2nnc3ccccc32)cc1 (stereo unspecified)
[1]
  IC50: 64 µM
[4]
  IC50: 4.07 µM
[2]
  IC50: 0.098 µM
[3]
  IC50: 0.062 µM

## COC(CC(C)C)c1ccc2cc(-c3ccc(CC(Cc4ccc(C(F)(F)P(=O)(O)O)cc4)(c4ccccc4)n4nnc5ccccc54)cc3)cc(P(=O)(O)O)c2n1 (stereo in doubt; 21d)
[1]
  IC50: 32 µM
[3]
  IC50: 0.93 µM

## O=P(O)(O)C(F)(F)c1ccc(CC(Cc2ccc(C(F)(F)P(=O)(O)O)cc2)(c2ccc3ccccc3n2)n2nnc3ccccc32)cc1
[1]
  IC50: 50 µM
[4]
  IC50: 0.062 µM
[2]
  IC50: 0.02 µM
[3]
  IC50: 0.028 µM

## NS(=O)(=O)c1ccccc1-c1ccc(CC(Cc2ccc(C(F)(F)P(=O)(O)O)cc2)(c2ccccc2)n2nnc3ccccc32)cc1 (stereo unspecified)
[1]
  IC50: 50 µM
[4]
  IC50: 0.93 µM
[2]
  IC50: 0.069 µM
[3]
  IC50: 0.082 µM

## O=P(O)(O)C(F)(F)c1ccc(CC(Cc2ccc(Br)cc2)(c2ccccc2)n2nnc3ccccc32)cc1 (stereo unspecified)
[1]
  IC50: 17 µM
[4]
  IC50: 1.6 µM
[2]
  IC50: 0.089 µM
[3]
  IC50: 0.092 µM

## O=P(O)(O)C(F)(F)c1ccc(CC(Cc2ccc(C(F)(F)P(=O)(O)O)c(Br)c2)(c2ccccc2)n2nnc3ccccc32)cc1 (stereo unspecified)
[1]
  IC50: 25 µM
[4]
  IC50: 0.16 µM
[2]
  IC50: 0.005 µM
[3]
  IC50: 0.004 µM

## COC(CC(C)C)c1ccc2cc(-c3ccc(CC(Cc4ccc(C(F)(F)P(=O)(O)O)cc4)(c4ccccc4)n4nnc5ccccc54)cc3)cc(P(=O)(O)O)c2n1 (stereo in doubt; 21a)
[1]
  IC50: 50 µM

## O=P(O)(O)C(F)(F)c1ccc(CC(Cc2ccc(C(F)(F)P(=O)(O)O)cc2)(c2ccc(F)c(F)c2)n2nnc3ccccc32)cc1
[1]
  IC50: 50 µM
[3]
  IC50: 0.008 µM

## COC(CC(C)C)c1ccc2cc(-c3ccc(CC(Cc4ccc(C(F)(F)P(=O)(O)O)cc4)(c4ccccc4)n4nnc5ccccc54)cc3)cc(P(=O)(O)O)c2n1 (stereo in doubt; 21b)
[1]
  IC50: 50 µM
[3]
  IC50: 0.041 µM

## COC(CC(C)C)c1ccc2cc(-c3ccc(CC(Cc4ccc(C(F)(F)P(=O)(O)O)cc4)(c4ccccc4)n4nnc5ccccc54)cc3)cc(P(=O)(O)O)c2n1 (stereo in doubt; 21c)
[1]
  IC50: 50 µM
[3]
  IC50: 1.13 µM

## O=P(O)(O)C(F)(F)c1ccc(CC(Cc2ccc(C(F)(F)P(=O)(O)O)cc2)(c2nnn[nH]2)n2nnc3ccccc32)cc1
[1]
  IC50: 7.2 µM
[4]
  IC50: 1.2 µM
[2]
  IC50: 0.032 µM
[3]
  IC50: 0.016 µM

## O=P(O)(O)C(F)(F)c1ccc(CC(Cc2ccc(C(F)(F)P(=O)(O)O)cc2)(c2ccccc2)n2nnc3ccccc32)cc1
[1]
  IC50: 50 µM
[4]
  IC50: 0.12 µM
[3]
  IC50: 0.01 µM

## O=P(O)(O)C(F)(F)c1ccc(CC(Cc2ccc(-c3ccccc3-c3nn[nH]n3)cc2)(c2ccccc2)n2nnc3ccccc32)cc1 (stereo unspecified)
[1]
  IC50: 50 µM
[4]
  IC50: 0.37 µM
[2]
  IC50: 0.074 µM
[3]
  IC50: 0.085 µM

## O=P(O)(O)C(F)(F)c1ccc(/C=C/CC(Cc2ccc(C(F)(F)P(=O)(O)O)cc2)(c2ccccc2)n2nnc3ccccc32)cc1 (stereo unspecified)
[1]
  IC50: 50 µM
[4]
  IC50: 0.12 µM
[2]
  IC50: 0.016 µM
[3]
  IC50: 0.01 µM
